Reference: ChEMBL document CHEMBL4706583, “2-Anilinoquinoline based arylamides as broad spectrum anticancer agents with B-RAF/C-RAF kinase inhibitory effects: Design, synthesis, in vitro cell-based and oncogenic kinase assessments” (Eur J Med Chem, 2020)
pIC50: −log10 of the molar value.

Legend:
LOX IMVI [1] = test: Growth inhibition of human LOX IMVI cells at 10 uM measured after 48 hrs by SRB assay relative to control; type: functional; details: read-out: GI
RPMI-8226 = test: Growth inhibition of human RPMI-8226 cells measured after 48 hrs by SRB assay; type: functional
SR = test: Growth inhibition of human SR cells measured after 48 hrs by SRB assay; type: functional
HOP-62 = test: Growth inhibition of human HOP-62 cells measured after 48 hrs by SRB assay; type: functional
HOP-92 = test: Growth inhibition of human HOP-92 cells measured after 48 hrs by SRB assay; type: functional; details: for CC50: read-out: LC50 (the source's name)
NCI-H460 = test: Growth inhibition of human NCI-H460 cells measured after 48 hrs by SRB assay; type: functional
HCC 2998 = test: Growth inhibition of human HCC 2998 cells measured after 48 hrs by SRB assay; type: functional
HCT-116 [2] = test: Growth inhibition of human HCT-116 cells measured after 48 hrs by SRB assay; type: functional
HT-29 = test: Growth inhibition of human HT-29 cells measured after 48 hrs by SRB assay; type: functional; details: for CC50: read-out: LC50 (the source's name)
KM12 = test: Growth inhibition of human KM12 cells measured after 48 hrs by SRB assay; type: functional
SF-268 = test: Growth inhibition of human SF-268 cells measured after 48 hrs by SRB assay; type: functional
SNB-19 = test: Growth inhibition of human SNB-19 cells measured after 48 hrs by SRB assay; type: functional
SNB-75 = test: Growth inhibition of human SNB-75 cells measured after 48 hrs by SRB assay; type: functional
LOX IMVI [3] = test: Growth inhibition of human LOX IMVI cells measured after 48 hrs by SRB assay; type: functional; details: for CC50: read-out: LC50 (the source's name)
MDA-MB-435 = test: Growth inhibition of human MDA-MB-435 cells measured after 48 hrs by SRB assay; type: functional
SK-MEL-5 = test: Growth inhibition of human SK-MEL-5 cells measured after 48 hrs by SRB assay; type: functional
UACC-257 = test: Growth inhibition of human UACC-257 cells measured after 48 hrs by SRB assay; type: functional
UACC-62 = test: Growth inhibition of human UACC-62 cells measured after 48 hrs by SRB assay; type: functional
OVCAR-3 = test: Growth inhibition of human OVCAR-3 cells measured after 48 hrs by SRB assay; type: functional
OVCAR-8 = test: Growth inhibition of human OVCAR-8 cells measured after 48 hrs by SRB assay; type: functional
NCI/ADR-RES = test: Growth inhibition of human NCI/ADR-RES cells measured after 48 hrs by SRB assay; type: functional
A498 = test: Growth inhibition of human A498 cells measured after 48 hrs by SRB assay; type: functional
RXF 393 = test: Growth inhibition of human RXF 393 cells measured after 48 hrs by SRB assay; type: functional
DU-145 = test: Growth inhibition of human DU-145 cells measured after 48 hrs by SRB assay; type: functional
MDA-MB-231 = test: Growth inhibition of human MDA-MB-231 cells measured after 48 hrs by SRB assay; type: functional
[4] = Cytotoxicity against human L132 cells assessed as cell viability at 3 uM measured after 48 hrs by EZ-Cytox assay relative to control; type: cell-based; details: read-out: Activity
[5] = Cytotoxicity against human L132 cells assessed as cell viability at 10 uM measured after 48 hrs by EZ-Cytox assay relative to control; type: cell-based; details: read-out: Activity
[6] = Cytotoxicity against African green monkey Vero cells assessed as cell viability at 1 uM measured after 48 hrs by EZ-Cytox assay relative to control; type: cell-based; details: chlorocebus sabaeus, read-out: Activity
[7] = Cytotoxicity against African green monkey Vero cells assessed as cell viability at 3 uM measured after 48 hrs by EZ-Cytox assay relative to control; type: cell-based; details: chlorocebus sabaeus, read-out: Activity
HCT-116 [8] = test: Induction of apoptosis in human HCT-116 cells assessed as early apoptotic cells at 1.25 uM measured after 24 hrs by Annexin-V Alexa Fluor488/propidium iodide staining based flow cytometry (reference value: 6.3%); type: functional
HCT-116 [9] = test: Induction of apoptosis in human HCT-116 cells assessed as necrotic cells at 2.5 uM measured after 24 hrs by Annexin-V Alexa Fluor488/propidium iodide staining based flow cytometry (reference value: 4.6%); type: functional
HCT-116 [10] = test: Induction of apoptosis in human HCT-116 cells assessed as viable cells at 5 uM measured after 24 hrs by Annexin-V Alexa Fluor488/propidium iodide staining based flow cytometry (reference value: 88.1%); type: functional; details: read-out: Activity
HCT-116 [11] = test: Induction of apoptosis in human HCT-116 cells assessed as early apoptotic cells at 5 uM measured after 24 hrs by Annexin-V Alexa Fluor488/propidium iodide staining based flow cytometry (reference value: 6.3%); type: functional
HCT-116 [12] = test: Induction of apoptosis in human HCT-116 cells assessed as late apoptotic cells at 5 uM measured after 24 hrs by Annexin-V Alexa Fluor488/propidium iodide staining based flow cytometry (reference value: 1%); type: functional
HCT-116 [13] = test: Induction of apoptosis in human HCT-116 cells assessed as early apoptotic cells at 1.25 uM measured after 48 hrs by Annexin-V Alexa Fluor488/propidium iodide staining based flow cytometry (reference value: 7.7%); type: functional
HCT-116 [14] = test: Induction of apoptosis in human HCT-116 cells assessed as necrotic cells at 1.25 uM measured after 48 hrs by Annexin-V Alexa Fluor488/propidium iodide staining based flow cytometry (reference value: 7.7%); type: functional
HCT-116 [15] = test: Induction of apoptosis in human HCT-116 cells assessed as early apoptotic cells at 2.5 uM measured after 48 hrs by Annexin-V Alexa Fluor488/propidium iodide staining based flow cytometry (reference value: 7.7%); type: functional
HCT-116 [16] = test: Induction of apoptosis in human HCT-116 cells assessed as necrotic cells at 2.5 uM measured after 48 hrs by Annexin-V Alexa Fluor488/propidium iodide staining based flow cytometry (reference value: 7.7%); type: functional
HCT-116 [17] = test: Induction of apoptosis in human HCT-116 cells assessed as early apoptotic cells at 5 uM measured after 48 hrs by Annexin-V Alexa Fluor488/propidium iodide staining based flow cytometry (reference value: 7.7%); type: functional
HCT-116 [18] = test: Induction of apoptosis in human HCT-116 cells assessed as late apoptotic cells at 5 uM measured after 48 hrs by Annexin-V Alexa Fluor488/propidium iodide staining based flow cytometry (reference value: 2.2%); type: functional
[19] = target: Serine/threonine-protein kinase B-raf (Homo sapiens, UniProt P15056); test: Inhibition of human BRAF using MEK1 (K97R) as substrate in presence of [gamma-33P]ATP by scintillation counting method
Homo sapiens = species on record: Homo sapiens; test: Selectivity ratio of IC50 for inhibition of human BRAF V600E mutant to IC50 for inhibition of human CRAF

Sequence of Serine/threonine-protein kinase B-raf (P15056 whole entry): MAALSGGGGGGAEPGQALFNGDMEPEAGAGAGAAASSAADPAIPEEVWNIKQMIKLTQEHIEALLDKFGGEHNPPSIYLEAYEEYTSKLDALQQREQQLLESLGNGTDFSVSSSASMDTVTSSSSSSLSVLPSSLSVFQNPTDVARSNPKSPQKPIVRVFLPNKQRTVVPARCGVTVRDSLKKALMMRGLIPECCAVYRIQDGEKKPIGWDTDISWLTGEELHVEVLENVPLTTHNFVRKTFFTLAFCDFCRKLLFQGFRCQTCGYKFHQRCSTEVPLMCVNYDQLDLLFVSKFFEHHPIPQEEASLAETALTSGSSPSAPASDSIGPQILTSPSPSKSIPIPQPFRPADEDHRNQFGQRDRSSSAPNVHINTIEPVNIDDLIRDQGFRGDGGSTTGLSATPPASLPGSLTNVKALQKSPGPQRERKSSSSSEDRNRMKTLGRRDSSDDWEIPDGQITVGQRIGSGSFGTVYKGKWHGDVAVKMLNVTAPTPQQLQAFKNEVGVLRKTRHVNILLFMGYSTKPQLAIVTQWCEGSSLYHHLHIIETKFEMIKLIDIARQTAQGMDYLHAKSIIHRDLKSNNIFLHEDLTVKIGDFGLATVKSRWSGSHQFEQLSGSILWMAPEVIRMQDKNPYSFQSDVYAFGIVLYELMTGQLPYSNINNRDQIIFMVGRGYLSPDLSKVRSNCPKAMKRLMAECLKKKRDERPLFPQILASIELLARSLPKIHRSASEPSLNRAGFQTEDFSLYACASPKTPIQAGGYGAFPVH

Structure (SMILES): CCN1CCN(c2cc(C(=O)Nc3cccc(Nc4ccc5c(OC)cccc5n4)c3)cc(C(F)(F)F)c2)CC1
- inhibition of growth at 10 µM (LOX IMVI [1]): 194%
- GI50 (RPMI-8226): 1.2 µM
- LC50 (concentration killing 50% of cells) (RPMI-8226): 15.3 µM
- TGI (RPMI-8226): 5.32 µM
- GI50 (SR): 0.883 µM
- GI50 (HOP-62): 1.02 µM
- GI50 (HOP-92): 1.26 µM
- TGI (HOP-92): 4.66 µM
- CC50 (HOP-92): 16.6 µM
- GI50 (NCI-H460): 1.34 µM
- GI50 (HCC 2998): 0.72 µM
- GI50 (HCT-116 [2]): 0.872 µM
- LC50 (HCT-116 [2]): 12.4 µM
- TGI (HCT-116 [2]): 3.54 µM
- GI50 (HT-29): 0.572 µM
- TGI (HT-29): 1.21 µM
- CC50 (HT-29): 2.56 µM
- GI50 (KM12): 1.71 µM
- GI50 (SF-268): 1.76 µM
- GI50 (SNB-19): 2.1 µM
- GI50 (SNB-75): 1.05 µM
- GI50 (LOX IMVI [3]): 0.78 µM
- TGI (LOX IMVI [3]): 1.96 µM
- CC50 (LOX IMVI [3]): 7.04 µM
- GI50 (MDA-MB-435): 1.16 µM
- GI50 (SK-MEL-5): 1.55 µM
- GI50 (UACC-257): 1.02 µM
- GI50 (UACC-62): 1.5 µM
- GI50 (OVCAR-3): 3.41 µM
- GI50 (OVCAR-8): 1.97 µM
- GI50 (NCI/ADR-RES): 1.29 µM
- GI50 (A498): 4.94 µM
- GI50 (RXF 393): 0.918 µM
- GI50 (DU-145): 1.88 µM
- GI50 (MDA-MB-231): 1.8 µM
- viability at 48 h, 3 µM [4]: 82.8%
- viability at 48 h, 10 µM [5]: 68.2%
- viability at 48 h, 1 µM [6]: 81.5%
- viability at 48 h, 3 µM [7]: 76.8%
- Activity (HCT-116 [8]): 12.5%
- Activity (HCT-116 [9]): 0.6%
- viability at 5 µM (HCT-116 [10]): 79.2%
- Activity (HCT-116 [11]): 19.3%
- Activity (HCT-116 [12]): 0.8%
- Activity (HCT-116 [13]): 16.6%
- Activity (HCT-116 [14]): 0.3%
- Activity (HCT-116 [15]): 19%
- Activity (HCT-116 [16]): 1.2%
- Activity (HCT-116 [17]): 26.8%
- Activity (HCT-116 [18]): 0.6%
- pIC50 [19]: 5.65
- Ratio IC50 (Homo sapiens): 2

Structure (SMILES): COc1cccc2nc(Nc3cccc(NC(=O)c4ccc(N5CCN(C)CC5)c(C(F)(F)F)c4)c3)ccc12
- inhibition of growth at 10 µM (LOX IMVI [1]): 197%
- GI50 (RPMI-8226): 1.65 µM
- LC50 (concentration killing 50% of cells) (RPMI-8226): > 50 µM
- TGI (RPMI-8226): 6.44 µM
- GI50 (SR): 1.13 µM
- GI50 (HOP-62): 0.856 µM
- GI50 (HOP-92): 0.854 µM
- TGI (HOP-92): 4.03 µM
- CC50 (HOP-92): 18.8 µM
- GI50 (NCI-H460): 0.964 µM
- GI50 (HCC 2998): 0.95 µM
- GI50 (HCT-116 [2]): 0.868 µM
- LC50 (HCT-116 [2]): 4.1 µM
- TGI (HCT-116 [2]): 1.89 µM
- GI50 (HT-29): 0.712 µM
- TGI (HT-29): 1.61 µM
- CC50 (HT-29): 3.65 µM
- GI50 (KM12): 1.09 µM
- GI50 (SF-268): 1.5 µM
- GI50 (SNB-19): 1.11 µM
- GI50 (SNB-75): 0.695 µM
- GI50 (LOX IMVI [3]): 0.873 µM
- TGI (LOX IMVI [3]): 1.57 µM
- CC50 (LOX IMVI [3]): 2.83 µM
- GI50 (MDA-MB-435): 0.878 µM
- GI50 (SK-MEL-5): 1.52 µM
- GI50 (UACC-257): 1.36 µM
- GI50 (UACC-62): 1.06 µM
- GI50 (OVCAR-3): 1.21 µM
- GI50 (OVCAR-8): 1.69 µM
- GI50 (NCI/ADR-RES): 1.5 µM
- GI50 (A498): 1.8 µM
- GI50 (RXF 393): 0.802 µM
- GI50 (DU-145): 1.81 µM
- GI50 (MDA-MB-231): 1.55 µM
- viability at 48 h, 3 µM [4]: 88.6%
- viability at 48 h, 10 µM [5]: 66.1%
- viability at 48 h, 1 µM [6]: 86.5%
- viability at 48 h, 3 µM [7]: 86.9%
- Activity (HCT-116 [8]): 4.7%
- Activity (HCT-116 [9]): 8.6%
- viability at 5 µM (HCT-116 [10]): 85.1%
- Activity (HCT-116 [11]): 7.9%
- Activity (HCT-116 [12]): 2.2%
- Activity (HCT-116 [13]): 14%
- Activity (HCT-116 [14]): 2.7%
- Activity (HCT-116 [15]): 14.3%
- Activity (HCT-116 [16]): 4.2%
- Activity (HCT-116 [17]): 29.6%
- Activity (HCT-116 [18]): 5.4%
- pIC50 [19]: 5.53
- Ratio IC50 (Homo sapiens): 2
